Laboratory results taken from ChEMBL document CHEMBL1133922, “Evolution of anti-HIV drug candidates. Part 2: Diaryltriazine (DATA) analogues” (Bioorg Med Chem Lett, 2001).

Tests used:
[1] = tested on: Human immunodeficiency virus 1; experiment: Inhibitory activity against 103N strain of HIV-I in MT-4 cell was determined; format: functional, organism-based; settings: Human immunodeficiency virus 1, MT4
[2] = tested on: Human immunodeficiency virus 1; experiment: Inhibitory activity against LAI strain of HIV-I in MT-4 cell was determined; format: functional, organism-based; settings: Human immunodeficiency virus 1, MT4
[3] = tested on: Human immunodeficiency virus 1; experiment: Inhibitory activity against 181C strain of HIV-I in MT-4 cell was determined; format: functional, organism-based; settings: Human immunodeficiency virus 1, MT4
[4] = tested on: Human immunodeficiency virus 1; experiment: Inhibitory activity against 100I strain of HIV-I in MT-4 cell was determined; format: functional, organism-based; settings: Human immunodeficiency virus 1, MT4
[5] = tested on: Human immunodeficiency virus 1; experiment: Inhibitory activity against 188L strain of HIV-1 in MT-4 cell was determined; format: functional, organism-based; settings: Human immunodeficiency virus 1, MT4
MT4 [6] = experiment: Inhibitory activity against 103N strain and 181C strain of HIV-I in MT-4 cell was determined; format: functional, cell-based; settings: Homo sapiens
MT4 [7] = experiment: Inhibitory activity against 100I strain and 103N strain of HIV-I in MT-4 cell was determined; format: functional, cell-based; settings: Homo sapiens
MT4 [8] = experiment: Inhibitory activity against LAI strain of HIV-I in MT-4 cell was determined; Not determined; format: functional, cell-based; settings: Homo sapiens

Row | IC50 [1] [nM] | IC50 [2] [nM] | IC50 [3] [nM] | IC50 [4] [nM] | IC50 [5] [nM] | Structure (SMILES) | IC50 (MT4 [6]) [nM] | IC50 (MT4 [7]) [µM] | IC50 (MT4 [8]) [µM]
1 | 526 | 31 | 1560 | – | – | COc1cccc(OC)c1Oc1nc(N)nc(Nc2ccc(C#N)cc2)n1 | – | – | –
2 | > 100000 | 7830 | > 100000 | – | – | Cc1cc(N)cc(C)c1Oc1nc(N)nc(Nc2ccc(C#N)cc2)n1 | – | – | –
3 | 6 | 1.3 | 40 | 16 | 398 | Cc1cc(Br)c(Oc2ncnc(Nc3ccc(C#N)cc3)n2)c(Br)c1 | – | – | –
4 | 20 | 4 | 501 | 1000 | 251 | Cc1cc(C#N)cc(C)c1Oc1ncnc(Nc2ccc(C#N)cc2)n1 | 398 | 3.98 | –
5 | 7550 | 379 | 43800 | 35100 | – | CC(C)NC(=O)Nc1nc(Cc2c(Cl)cccc2Cl)nc(Nc2ccc(C#N)cc2)n1 | – | – | –
6 | 10 | 30 | 68 | 204 | 75 | Cc1cc(I)cc(C)c1Oc1nc(N)nc(Nc2ccc(C#N)cc2)n1 | – | – | –
7 | – | 194 | – | – | – | N#Cc1ccc(Nc2nc(Cc3c(Cl)cccc3Cl)nc(N3CCOCC3)n2)cc1 | – | – | –
8 | 65 | 7.3 | 259 | 706 | 1020 | N#Cc1ccc(Nc2nc(N)nc(Oc3c(Cl)cc(F)cc3Cl)n2)cc1 | – | – | –
9 | 8 | 1 | 50 | 251 | 50 | Cc1cc(C#N)cc(C)c1Nc1ncnc(Nc2ccc(C#N)cc2)n1 | 126 | 2.51 | –
10 | – | – | – | – | – | CCCONc1nc(Cc2c(Cl)cccc2Cl)nc(Nc2ccc(C#N)cc2)n1 | – | – | 100
11 | 21 | 5 | 379 | 1260 | 297 | CN(C)CCNc1nc(Cc2c(Cl)cccc2Cl)nc(Nc2ccc(C#N)cc2)n1 | – | – | –
12 | 6 | 0.6 | 16 | 79 | 63 | Cc1cc(Br)cc(C)c1Nc1ncnc(Nc2ccc(C#N)cc2)n1 | 126 | 3.16 | –
13 | 87 | 51 | 3650 | 216 | 8950 | N#Cc1ccc(Nc2nc(N)nc(Oc3c(F)cc(F)cc3F)n2)cc1 | – | – | –
14 | 85 | 4.6 | 1190 | 6700 | 367 | Cc1cc(C)c(C)c(Cc2nc(N)nc(Nc3ccc(C#N)cc3)n2)c1C | – | – | –
15 | 15500 | 1550 | 68500 | – | – | C[S+]([O-])c1nc(Cc2c(Cl)cccc2Cl)nc(Nc2ccc(C#N)cc2)n1 (configuration not stated) | – | – | –
16 | 37 | 5.5 | 1390 | 1080 | 315 | CN(C)CCOc1nc(Cc2c(Cl)cccc2Cl)nc(Nc2ccc(C#N)cc2)n1 | – | – | –
17 | 8470 | 285 | > 100000 | 8070 | – | N#Cc1ccc(Nc2nc(N)nc(Cc3ccccc3)n2)cc1 | – | – | –
18 | 548 | 12 | 1320 | 1640 | 1730 | CCOC(=O)Nc1nc(Cc2c(Cl)cccc2Cl)nc(Nc2ccc(C#N)cc2)n1 | – | – | –
19 | 82 | 6.2 | 62.8 | 1380 | 804 | CONc1nc(Cc2c(Cl)cccc2Cl)nc(Nc2ccc(C#N)cc2)n1 | – | – | –
20 | 4690 | 166 | 13400 | 32200 | – | CN(C)c1nc(Cc2c(Cl)cccc2Cl)nc(Nc2ccc(C#N)cc2)n1 | – | – | –
21 | 3 | 2 | 13 | 32 | 20 | Cc1cc(C)c(Sc2ncnc(Nc3ccc(C#N)cc3)n2)c(C)c1 | – | > 10 | –
22 | – | – | – | – | – | CCONc1nc(Cc2c(Cl)cccc2Cl)nc(Nc2ccc(C#N)cc2)n1 | – | – | 0.0246
23 | 12 | 2.4 | 62 | 87 | 502 | N#Cc1ccc(Nc2nc(N)nc(Oc3c(Cl)cc(Cl)cc3Cl)n2)cc1 | – | – | –
24 | 8 | 2 | 57 | 330 | 123 | Cc1cc([N+](=O)[O-])cc(C)c1Oc1nc(N)nc(Nc2ccc(C#N)cc2)n1 | – | – | –
25 | 1740 | 610 | 5830 | 5830 | 7320 | N#Cc1ccc(Nc2nc(Cc3c(Cl)cccc3Cl)nc(NN)n2)cc1 | – | – | –
26 | – | 86 | – | – | – | CON(C)c1nc(Cc2c(Cl)cccc2Cl)nc(Nc2ccc(C#N)cc2)n1 | – | – | –

Row | IC50 [1] [nM] | IC50 [2] [nM] | IC50 [3] [nM] | IC50 [4] [nM] | IC50 [5] [nM] | Structure (SMILES) | IC50 (MT4 [6]) [nM] | IC50 (MT4 [7]) [µM] | IC50 (MT4 [8]) [µM]
27 | 40 | 16 | 100000 | 100000 | 158 | CC(=O)Nc1nc(Cc2c(Cl)cccc2Cl)nc(Nc2ccc(C#N)cc2)n1 | – | – | –
28 | 723 | 94 | 1610 | – | – | N#Cc1ccc(Nc2nc(S)nc(Cc3c(Cl)cccc3Cl)n2)cc1 | – | – | –
29 | 5080 | 91 | 6370 | 77900 | > 100000 | Cc1cc(C)cc(Cc2nc(N)nc(Nc3ccc(C#N)cc3)n2)c1 | – | – | –
30 | – | 849 | – | – | – | CCCNc1nc(Cc2c(Cl)cccc2Cl)nc(Nc2ccc(C#N)cc2)n1 | – | – | –
31 | 82 | 3.1 | 279 | 384 | 4570 | N#Cc1ccc(Nc2nc(N)nc(Oc3c(Cl)cccc3Cl)n2)cc1 | – | – | –
32 | 336 | 18 | 2350 | – | – | CSc1nc(Cc2c(Cl)cccc2Cl)nc(Nc2ccc(C#N)cc2)n1 | – | – | –
33 | 52600 | 5260 | 100000 | – | – | N#Cc1ccc(Nc2nc(F)nc(Cc3c(Cl)cccc3Cl)n2)cc1 | – | – | –
34 | 224 | 14 | 1140 | – | – | N#Cc1ccc(Nc2nc(Cc3c(Cl)cccc3Cl)nc(N=[N+]=[N-])n2)cc1 | – | – | –
35 | 231 | 12 | 1450 | 1150 | 1550 | COc1nc(Cc2c(Cl)cccc2Cl)nc(Nc2ccc(C#N)cc2)n1 | – | – | –
36 | 13 | 2.4 | 38 | 107 | 26 | N#Cc1ccc(Nc2nc(Cc3c(Cl)cccc3Cl)nc(NO)n2)cc1 | – | – | –
37 | 16 | 1.4 | 6.2 | 221 | 161 | N#Cc1ccc(Nc2nc(N)nc(Cc3c(Cl)cc(Cl)cc3Cl)n2)cc1 | – | – | –
38 | 400 | 130 | 2570 | 2650 | 7370 | N#Cc1ccc(Nc2nc(N)nc(Cc3ccccc3Cl)n2)cc1 | – | – | –
39 | 10000 | 1080 | 10000 | – | – | N#Cc1ccc(Nc2nc(Cl)nc(Cc3c(Cl)cccc3Cl)n2)cc1 | – | – | –
40 | 137 | 7 | 440 | 1160 | 1020 | CNc1nc(Cc2c(Cl)cccc2Cl)nc(Nc2ccc(C#N)cc2)n1 | – | – | –
41 | 63 | 3 | 286 | 416 | 265 | N#Cc1ccc(Nc2nc(N)nc(Cc3c(Cl)ccc(Cl)c3Cl)n2)cc1 | – | – | –
42 | 274 | 14 | 791 | 2100 | 2320 | N#Cc1ccc(Nc2nc(N)nc(Cc3ccc(Cl)cc3Cl)n2)cc1 | – | – | –
43 | 17 | 5.4 | 61 | 131 | 619 | N#Cc1ccc(Nc2nc(N)nc(Oc3c(Br)cc(Br)cc3Br)n2)cc1 | – | – | –
44 | 3 | 0.6 | 20 | 20 | 63 | Cc1cc(C)c(Oc2ncnc(Nc3ccc(C#N)cc3)n2)c(C)c1 | – | > 10 | –
45 | 6 | 2.1 | 35 | 59 | 103 | Cc1cc(Br)cc(Cl)c1Oc1nc(N)nc(Nc2ccc(C#N)cc2)n1 | – | – | –
46 | 40 | 2.7 | 210 | 611 | 358 | CC(=N)Nc1nc(Cc2c(Cl)cccc2Cl)nc(Nc2ccc(C#N)cc2)n1 | – | – | –
47 | 16 | 2.5 | 316 | 631 | 251 | CN(C)/C=N\c1nc(Cc2c(Cl)cccc2Cl)nc(Nc2ccc(C#N)cc2)n1 | – | – | –
48 | 6 | 2.9 | 19 | 64 | 36 | Cc1cc(C)c(Sc2nc(N)nc(Nc3ccc(C#N)cc3)n2)c(C)c1 | – | – | –
49 | 607 | 160 | 2120 | – | – | N#Cc1ccc(Nc2nc(O)nc(Cc3c(Cl)cccc3Cl)n2)cc1 | – | – | –
50 | 273 | 3.1 | 1570 | 5860 | 1030 | Cc1ccc(C)c(Cc2nc(N)nc(Nc3ccc(C#N)cc3)n2)c1 | – | – | –
51 | 42 | 1.2 | 225 | 1460 | 105 | Cc1cccc(C)c1Cc1nc(N)nc(Nc2ccc(C#N)cc2)n1 | – | – | –

Row | Structure (SMILES) | IC50 [1] [nM] | IC50 [2] [nM] | IC50 [3] [nM] | IC50 [4] [nM] | IC50 [5] [nM] | IC50 (MT4 [6]) [nM] | IC50 (MT4 [7]) [µM] | IC50 (MT4 [8]) [µM]
52 | Cc1cc(C)c(Cc2nc(N)nc(Nc3ccc(C#N)cc3)n2)c(C)c1 | 3 | 0.8 | 15 | 82 | 45 | – | – | –
53 | N#Cc1ccc(Nc2nc(N)nc(Cc3c(Cl)cccc3Cl)n2)cc1 | 40 | 6.3 | 200 | 398 | 316 | – | – | –
